Like-named read-outs stand apart in the source and are kept apart here.
Legend:
[1] = test system: HePG2, HCT-116, MCF-7, PC3, HeLa cell lines; assay: MTT antiproliferative assay, IC50 range over the cancer cell line panel; assay type: cell-based; conditions: Homo sapiens
Procedure: (§1) The in vitro antiproliferative activity of all synthesised compounds was evaluated by an MTT assay according to the reported method[47]^,[48].
(§2) 2. Experimental procedure
(§3) 2.1. Antiproliferative screening
(§4) The in vitro antiproliferative activity of all synthesized compounds was evaluated by an MTT assay according to the reported method using five different human cancer cell lines, including […]
(§5) cervical carcinoma (HeLa), and human prostate cancer (PC-3). The cell lines were obtained from ATCC via a holding company for biological products and vaccines (VACSERA), Cairo, Egypt. The MTT assay is a colorimetric assay used for measuring the cellular growth based on the reduction of the yellow MTT to a purple formazan derivative by mitochondrial succinate dehydrogenase in viable cells. The color intensity of the formazan dye is correlated to the number of viable cells. The […]
(§6) IC50% values were calculated using dose response curves. The percentage of relative cell viability was calculated as (A570 of treated samples)/(A570 of untreated sample) × 100. The cytotoxic activity was defined as the concentration of the compound that caused 50% growth inhibition compared with the growth of an untreated cell. […]

[2] = test system: MCF-7 cells (human breast adenocarcinoma); assay: MTT antiproliferative assay, MCF-7; assay type: cell-based; conditions: MCF-7, triplicate, read-out: In vitro cytotoxicity IC50, MCF-7
Procedure: as §1, §2, §3, §4, §5, §6

[3] = test system: HeLa cells (cervical carcinoma); assay: MTT antiproliferative assay, HeLa; assay type: cell-based, human; conditions: triplicate, read-out: In vitro cytotoxicity IC50, HeLa
Procedure: as §1, §2, §3, §4, §5, §6

[4] = test system: HCT-116 cells (colorectal carcinoma); assay: MTT antiproliferative assay, HCT-116; assay type: cell-based, human; conditions: HCT-116, triplicate, read-out: In vitro cytotoxicity IC50, HCT-116
Procedure: as §1, §2, §3, §4, §5, §6

[5] = test system: PC3 cells (human prostate carcinoma); assay: MTT antiproliferative assay, PC3; assay type: cell-based; conditions: PC-3, PC3, triplicate, read-out: In vitro cytotoxicity IC50, PC3
Procedure: as §1, §2, §3, §4, §5, §6

[6] = test system: HePG2 cells (hepatocellular carcinoma); assay: MTT antiproliferative assay, HePG2; assay type: cell-based, human; conditions: HePG2, triplicate, read-out: In vitro cytotoxicity IC50, HePG2
Procedure: as §1, §2, §3, §4, §5, §6

[7] = test system: WI38 normal cell; assay: MTT cytotoxicity on normal fibroblast cells; assay type: cell-based; conditions: Homo sapiens, WI-38; MTT assay, non tumour normal cell WI38
[8] = molecular target: T1, EGFR TK (Homo sapiens, UniProt P00533); assay: EGFR TK inhibition assay (luminescent, Kinase-Glo MAX); assay type: biochemical
T1 construct: add 20 μl of diluted EGFR enzyme and incubate at 30°C for 40
Procedure: 2.2. Epidermal growth factor inhibition assay
In vitro luminescent EGFR tyrosine kinase assay, using Kinase-Glo® MAX as a detection reagent using DP‐Glo™ reagent that measures the adenosine diphosphate (ADP) formed from a kinase reaction, were performed; this luminescent signal positively correlates with ADP amount and kinase activity. In 17 μl of distilled water, 6 μl of Kinase assay buffer and 1 μl ATP and 1 μl PTK substrate were mixed (master mixture). In every well, mix 20 μl of the master mixture and 5 μl of Inhibitor solution (Test Inhibitor) for positive control, and use 5 μl of the same solution without inhibitor (Inhibitor buffer) as the blank solution; add 20 μl of diluted EGFR enzyme and incubate at 30°C for 40

[9] = test system: MCF-7 cells; assay: Annexin V-FITC/PI apoptosis assay, MCF-7; conditions: MCF-7, 10 µM, 24 h
Procedure: (§7) A comparison was made to the control (DMSO) and reference (gefitinib).
(§8) The cell line samples were analysed using FACSCalibur flow cytometer.
(§9) with PI. The cells were compared with the control, which was treated with DMSO.
Analysis of cellular apoptosis
(§10) concentration, respectively, and then incubated for 24 h. Following incubation, 1 –5 × 10^5 cells were
(§11) harvested and suspended in 500 µ L of the binding buffer, 5 µ L of annexin V-FITC, and 5 µL of PI.
(§12) annexin V-FITC conjugate is specially engineered to produce an enhanced fluorescence signal and
(§13) photostability. The annexin V-FITC kit included annexin V-FITC for detecting apoptosis as well as PI
(§14) for detecting necrosis. Thus, apoptosis and necrosis could be effectively differentiated. Detection and
(§15) analysis of the annexin V-FITC binding by flow cytometry was conducted using a FITC signal
(§16) detector (typically FL1). PI staining was evaluated by a phycoerythrin emission signal detector

[10] = test system: HCT-116 cells; assay: Annexin V-FITC/PI apoptosis assay, HCT-116; conditions: HCT-116, 10 µM, 24 h
Procedure: as §7, §8, §9
Analysis of cellular apoptosis
as §10, §11, §12, §13, §14, §15, §16

[11] = test system: MCF-7 cells; assay: Cell cycle analysis by PI flow cytometry, MCF-7; conditions: MCF-7, 10 µM, 24 h
Procedure: as §7
(§17) Cell cycle analysis and induction of apoptosis
(§18) Flow cytometry analysis of the cell cycle distribution
(§19) incubation period, the cells were collected, centrifuged, and ﬁxed with ice-cold ethanol (70%). The cells were subsequently treated with a buffer containing RNAse A and 0.1% Triton X-100, and stained
(§20) with PI. The cells were compared with the control, which was treated with DMSO. The DNA content
was measured by flow cytometry [50-52].

[12] = test system: HCT-116 cells; assay: Cell cycle analysis by PI flow cytometry, HCT-116; conditions: HCT-116, 10 µM, 24 h
Procedure: as §7, §17, §18, §19, §20
was measured by flow cytometry [50-52].

[13] = HePG2, HCT-116, MCF-7, PC3, HeLa, read-out: IC50 range over all tested cancer cell lines
[14] = Homo sapiens, HCT-116, MTT assay
[15] = four cell lines, without HCT-116, read-out: IC50 range against HePG2, MCF-7, PC3, and HeLa cell lines

T1 sequence (P00533 25-1210): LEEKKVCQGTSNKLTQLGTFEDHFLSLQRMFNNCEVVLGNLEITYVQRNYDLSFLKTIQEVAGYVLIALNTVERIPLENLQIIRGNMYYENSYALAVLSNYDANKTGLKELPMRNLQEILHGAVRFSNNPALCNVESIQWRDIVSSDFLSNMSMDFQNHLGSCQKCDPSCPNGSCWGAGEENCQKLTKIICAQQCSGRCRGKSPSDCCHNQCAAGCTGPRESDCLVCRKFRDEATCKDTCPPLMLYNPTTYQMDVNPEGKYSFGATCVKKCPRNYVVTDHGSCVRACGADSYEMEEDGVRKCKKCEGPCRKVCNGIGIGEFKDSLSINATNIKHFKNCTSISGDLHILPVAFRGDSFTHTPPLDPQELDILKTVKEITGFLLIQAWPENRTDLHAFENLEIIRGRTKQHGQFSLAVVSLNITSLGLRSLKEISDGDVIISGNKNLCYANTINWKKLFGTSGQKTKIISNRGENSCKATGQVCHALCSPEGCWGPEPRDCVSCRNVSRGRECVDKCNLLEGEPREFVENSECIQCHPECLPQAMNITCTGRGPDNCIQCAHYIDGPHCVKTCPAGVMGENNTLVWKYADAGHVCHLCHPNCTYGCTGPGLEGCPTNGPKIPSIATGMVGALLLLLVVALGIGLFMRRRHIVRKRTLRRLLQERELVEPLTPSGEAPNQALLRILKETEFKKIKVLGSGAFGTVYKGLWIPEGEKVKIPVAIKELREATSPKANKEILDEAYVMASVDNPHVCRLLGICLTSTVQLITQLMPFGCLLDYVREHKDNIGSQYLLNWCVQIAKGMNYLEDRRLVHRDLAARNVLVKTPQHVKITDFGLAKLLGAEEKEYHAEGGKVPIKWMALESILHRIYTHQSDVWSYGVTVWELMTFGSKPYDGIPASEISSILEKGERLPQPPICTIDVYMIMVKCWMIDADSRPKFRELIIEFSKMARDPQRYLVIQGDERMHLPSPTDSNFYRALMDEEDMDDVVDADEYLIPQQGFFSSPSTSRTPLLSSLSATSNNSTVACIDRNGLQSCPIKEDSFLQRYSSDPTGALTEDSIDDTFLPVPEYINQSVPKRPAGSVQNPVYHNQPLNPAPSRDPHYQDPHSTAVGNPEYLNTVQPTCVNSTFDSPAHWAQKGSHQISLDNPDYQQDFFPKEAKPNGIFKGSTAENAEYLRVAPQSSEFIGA

Structure (SMILES) | IC50 ([2]; Homo sapiens, MCF7, MTT assay) [µM] | IC50 ([3]; Homo sapiens) [µM] | IC50 [4, 14] [µM] | IC50 ([4]; MTT assay) [µM] | IC50 [5] [µM] | IC50 ([6]; Homo sapiens, HepG2, MTT assay) [µM] | melting point [°C] | IC50 [7] [µM] | other results
CN(C)C/C=C/C(=O)Nc1cc2c(Nc3ccc(F)c(Cl)c3)ncnc2cc1O[C@H]1CCOC1 [Afatinib, reference compound] | 7.23 | 6.3 ± 0.69 | 11.2 | 11.2 ± 1.11 | 7.6 ± 0.6 | 5.53 | – | – | IC50 [1, 13]: 5.5 to 11.2 µM; IC50 ([2]; MTT assay): 7.2 ± 0.5 µM; IC50 ([6]; MTT assay): 5.5 ± 0.24 µM
CC(=C(C#N)C#N)c1cc2ccccc2o1 [Compound 2, 2-(1-(benzofuran-2-yl)ethylidene)malononitrile] | 8.36 to 17.3 | 39 ± 2.4 | 8.81 to 13.8 | 8.81 ± 0.7 | 26.8 ± 2.2 | 16.1 to 23.7 | 140 to 142 | 86.5 ± 4.7 | IC50 ([2]; MTT assay): 8.36 ± 0.9 µM; IC50 [8]: 1.09 µM; IC50 ([6]; MTT assay): 16.1 ± 1.4 µM
CCNc1nccc(-c2cc3ccccc3o2)c1C#N [Compound 4, 4-(Benzofuran-2-yl)-2-(ethylamino)nicotinonitrile] | 55 ± 3.2 | 21 | 72.4 ± 3.8 | – | 14.3 ± 1.3 | 58.8 ± 3.3 | 155 to 158 | – | IC50 [1, 15]: 14.3 to 58.8 µM; IC50 [3]: 21.1 ± 1.6 µM
CCCNc1nccc(-c2cc3ccccc3o2)c1C#N [Compound 5, 4-(Benzofuran-2-yl)-2-(propylamino)nicotinonitrile] | > 100 | 75.2 ± 4.8 | 94.1 ± 5.1 | – | 94.6 ± 4.9 | 83.6 ± 4.4 | 118 to 120 | – | IC50 [1, 15]: 75.2 to 100 µM
CCCCNc1nccc(-c2cc3ccccc3o2)c1C#N [Compound 6, 4-(Benzofuran-2-yl)-2-(butylamino)nicotinonitrile] | 81.6 ± 4 | 91.9 ± 5.1 | 56.4 ± 3.2 | – | > 100 | 79 ± 4.2 | 112 to 114 | 204 ± 11.1 | IC50 [1, 15]: 75.2 to 100 µM
N#Cc1c(-c2cc3ccccc3o2)ccnc1NCCO [Compound 7, 4-(Benzofuran-2-yl)-2-(2-hydroxyethylamino)nicotinonitrile] | 40.8 ± 2.5 | 73.3 ± 4.2 | 38.6 | 38.6 ± 2 | 70.1 ± 3.8 | 53.4 ± 2.9 | 164 to 166 | 59.5 ± 3.23 | IC50 [1, 13]: 38.6 to 73.3 µM
N#Cc1c(-c2cc3ccccc3o2)ccnc1NCCCO [Compound 8, 4-(Benzofuran-2-yl)-2-(3-hydroxypropylamino)nicotinonitrile] | – | 58.8 ± 3.7 | 8.81 to 13.8 | 13.8 ± 1.3 | 36.7 ± 2.8 | 16.1 to 23.7 | 124 to 126 | 151 ± 8.22 | IC50 [1, 13]: 13.8 to 58.8 µM; IC50 [8]: 4.24 µM; IC50 ([6]; MTT assay): 23.7 ± 1.8 µM
N#Cc1c(-c2cc3ccccc3o2)ccnc1NC1CCCCC1 [Compound 9, 4-(Benzofuran-2-yl)-2-(cyclohexylamino)nicotinonitrile] | 35.2 ± 2.2 | 73.6 ± 4.1 | 29.5 ± 1.8 | – | 51.1 ± 3.6 | 44.7 ± 2.7 | 186 to 188 | – | –
N#Cc1c(-c2cc3ccccc3o2)ccnc1NCc1ccccc1 [Compound 10, 4-(Benzofuran-2-yl)-2-(benzylamino)nicotinonitrile] | 19.7 ± 1.6 | 46.2 ± 3 | 27.5 ± 1.5 | – | 30.9 ± 2.6 | 34.3 ± 2.1 | 180 to 182 | – | IC50 [8]: 1.12 µM
COc1ccc(CCNc2nccc(-c3cc4ccccc4o3)c2C#N)cc1 [Compound 12, 4-(Benzofuran-2-yl)-2-(4-methoxyphenethylamino)nicotinonitrile] | 61.5 ± 3.5 | 85.4 ± 4.7 | 49.7 ± 2.9 | – | 93.5 ± 4.4 | 70.5 ± 3.8 | 156 to 158 | 76.3 ± 4.14 | –
COc1cccc2c1C(=O)c1c(O)c3c(c(O)c1C2=O)C[C@@](O)(C(=O)CO)C[C@@H]3O[C@H]1C[C@H](N)[C@H](O)[C@H](C)O1 [DOX, Doxorubicin, reference compound] | – | – | – | – | – | 4.5 ± 0.2 | – | 55.3 ± 3 | –
COc1cc2ncnc(Nc3ccc(F)c(Cl)c3)c2cc1OCCCN1CCOCC1 [Gefitinib, reference compound] | – | – | – | – | – | – | – | – | Necrosis ([9]; control 0.15): 1.64%; Early apoptosis ([9]; control 0.16): 4.28%; Late apoptosis ([9]; control 0.24): 7.63%; Apoptosis, Total ([9]; control 0.55): 13.55%; Late apoptosis ([10]; control 0.11): 7.47%; Necrosis ([10]; control 0.12): 1.8%; Early apoptosis ([10]; control 0.16): 7.22%; Apoptosis, Total ([10]; control 0.39): 16.49%; %Pre/G1 ([11]; control 0.55, '% Apoptosis' in Figure 6A): 13.55%; %G2/M ([11]; control 3.66): 23.63%; %S ([11]; control 27.37): 16.51%; %G0/G1 ([11]; control 66.42): 46.31%; %Pre/G1 ([12]; control 0.39, '% Apoptosis' in Figure 5A): 16.49%; %G2/M ([12]; control 4.19): 21.71%; %S ([12]; control 25.21): 13.34%; %G0/G1 ([12]; control 70.21): 48.37%

From PMC8266232, “Design, synthesis, and analysis of antiproliferative and apoptosis-inducing activities of nitrile derivatives containing a benzofuran scaffold: EGFR inhibition assay and molecular modelling study” (Journal of Enzyme Inhibition and Medicinal Chemistry, 2021)
